Consider one molecule from patent US12679811B2, “Microcrystalline diketopiperazine compositions and methods” (MannKind Corporation, priority 2013, dated 2026).

The data set in a line: Solubility of FDKP as a function of pH. The class given is physicochemical.

On to `O=C(O)/C=C/C(=O)NCCCCC1NC(=O)C(CCCCNC(=O)/C=C/C(=O)O)NC1=O` (centres unmarked) [FDKP, 3,6-bis(N-fumaryl-4-aminobutyl)-2,5-diketopiperazine], for which the solubility entry is “readily soluble” (at neutral or basic pH) and “low solubility” (in acid).
